Measured values as given in patent US6528618B1, “Anti-inflammatory peptides derived from C-reactive protein” (Yeda Research and Development Co. Ltd., priority 1997, dated 2003).
Where a SMILES comes first, the peptide text is derived from it.

Columns and labels:
[1] = target: T1, human leukocyte cathepsin G (hCG) (Homo sapiens, UniProt P08311); experiment: In vitro inhibition of hCG (cleavage of Suc-AAPF-NA); assay type: biochemical; details: for Ki: hCG Ki [μM], substrate Suc-AAPF-NA 600 μM, pH 7.4
T1 construct: Neutrophils (1.4 billion) were isolated from whole blood obtained from a single healthy laboratory donor; from tissue; host or cells: neutrophils from whole blood of a single healthy donor
T1 sequence (P08311 21-243 limits assumed): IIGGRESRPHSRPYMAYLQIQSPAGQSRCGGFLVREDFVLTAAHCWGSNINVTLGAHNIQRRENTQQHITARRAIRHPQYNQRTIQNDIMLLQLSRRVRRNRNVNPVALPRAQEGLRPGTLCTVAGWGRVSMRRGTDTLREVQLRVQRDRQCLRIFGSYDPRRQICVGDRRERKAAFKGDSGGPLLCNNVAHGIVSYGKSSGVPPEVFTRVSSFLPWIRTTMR
Protocol: (§1) The enzymatic activity was assayed with MeOSuc-AAPV-NA for hLE determination and Suc-AAPF-NA for hCG determination (both in 100 mM Hepes buffer, pH 7.4, containing 0.05% of the […] detergent Brij-35). The activities of the individual enzymatic fractions were 100% free from cross-contamination. […] The fractions containing hLE and hCG were dialyzed each against 0.1% pyridinium acetate, pH 5.3, divided into 20 aliquots, lyophilized, and stored at −20 ° C. until use.
(§2) vi) Inhibition experiments with hCG: Similar conditions to hLE inhibition experiments were used except the substrate: 80 μL of 1.80 mM Suc-AAPF-NA. The enzyme was dissolved in 800 μL buffer, and the reaction was monitored every 6 min for 1 hour. The final volume was 240 μL containing: 5% DMSO, 1-100 μM peptide, 600 μM substrate, and 1.2 μg enzyme (about 40 picomol).
For hCG, V is determined by fitting a quadratic equation to the total kinetic data (60 min), using the least squares method and calculating V at t=0.
The hCG inhibitory capability of CRP-derived peptides was evaluated by inhibiting the enzymatic cleavage of Suc-AAPF-NA as described in Materials and Methods (section vi).

[2] = target: T2, human leukocyte elastase (hLE) (Homo sapiens, UniProt P08246); experiment: In vitro inhibition of hLE (cleavage of MeOSuc-AAPV-NA); assay type: biochemical; details: for Ki: hLE Ki [μM], substrate MeOSuc-AAPV-NA 200 μM, pH 7.4, 37 C
T2 construct: Neutrophils (1.4 billion) were isolated from whole blood obtained from a single healthy laboratory donor; from tissue; host or cells: neutrophils from whole blood of a single healthy donor
T2 sequence (P08246 30-247 limits assumed): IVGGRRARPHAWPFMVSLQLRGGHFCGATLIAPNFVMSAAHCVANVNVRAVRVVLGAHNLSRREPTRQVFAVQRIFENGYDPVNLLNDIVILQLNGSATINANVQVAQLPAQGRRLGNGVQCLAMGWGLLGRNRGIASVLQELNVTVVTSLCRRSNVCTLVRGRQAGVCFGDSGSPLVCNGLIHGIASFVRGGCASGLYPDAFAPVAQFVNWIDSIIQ
Protocol: as §1
(v) Inhibition experiments with hLE: Peptides were dissolved in 100 mM Hepes buffer pH 7.4 containing 0.1% Brij-35 with 10%. DMSO to yield 300 μM solutions, which were used to make further dilutions with the same buffer, and 80 μL aliquots were added in duplicates to 96-well plates. The substrate, 600 μM MeOSuc-AAPV-NA in the same buffer with 5% DMSO, was added to each well in addition to the blank wells, and the plate was placed in the plate reader equilibrated to 37 C (Dynateck MR-6000). Lyophilized aliquots of hLE were dissolved in 1600 μL of 100 mM Hepes buffer without DMSO, and 80 μL of the enzyme solution was added to the peptides and substrate to initiate the reaction. […] The final volume was 240 μL containing: 5% DMSO, 1-100 μM of peptide, 200 μM substrate, and 0.75 μg (˜25 picomol) enzyme.
(viii) Calculations: For hLE, V is determined by fitting a linear equation to the first 6 time-points (10 min) of the kinetics data using the least squares method. […] Several inhibitor concentration in duplicates and two control wells were used to fit a linear equation to graphs of Vo/Vi−1 vs. [I] for each inhibitor using the least squares method (8 data points for each inhibitor). From calculating the error in the slope of the equation, the relative error for Ki was deduced:
Ki={slope*(1+[S]/Km)}^−1because Ki=[I]*{(1+[S]/Km)*(Vo/Vi−1)}^−1.
(§3) The hLE inhibitory capability of CRP-derived peptides was evaluated by inhibiting the enzymatic cleavage of MeOSuc-AAPV-NA as described in Materials and Methods (section v).

human leukocyte elastase [3] = target: T3, human leukocyte elastase (human, UniProt P08246 30-267); experiment: hLE enzyme inhibition kinetics, cleavage of MeOSuc-AAPV-NA
T3 construct: mature; Active enzyme purified from human neutrophils; also called hLE
T3 sequence (looked up): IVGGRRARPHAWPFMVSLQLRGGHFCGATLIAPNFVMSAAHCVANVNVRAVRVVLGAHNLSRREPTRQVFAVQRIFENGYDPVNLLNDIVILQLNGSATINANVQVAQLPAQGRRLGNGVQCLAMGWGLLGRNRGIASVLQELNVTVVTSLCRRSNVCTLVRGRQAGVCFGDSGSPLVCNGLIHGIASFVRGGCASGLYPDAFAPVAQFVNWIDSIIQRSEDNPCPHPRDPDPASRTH
Protocol: (§4) (v) Inhibition experiments with hLE: Peptides were dissolved in 100 mM Hepes buffer pH 7.4 containing 0.1% Brij-35 with 10%. DMSO to yield 300 µM solutions, which were used to make further dilutions with the same buffer, and 80 µL aliquots were added in duplicates to 96-well plates. The substrate, 600 µM MeOSuc-AAPV-NA in the same buffer with 5% DMSO, was added to each well in addition to the blank wells, and the plate was placed in the plate reader equilibrated to 37 C (Dynateck MR-6000). Lyophilized aliquots of hLE were dissolved in 1600 µL of 100 mM Hepes buffer without DMSO, and 80 µL of the enzyme solution was added to the peptides and substrate to initiate the reaction. The kinetics program read the plate at 405 nm every 2 min for 20 min (with a 3 sec shaking period between readings), and plotted the results as well as the average of each duplicate. The final volume was 240 µL containing: 5% DMSO, 1–100 µM of peptide, 200 µM substrate, and 0.75 µg (~25 picomol) enzyme.
as §3

human leukocyte elastase [4] = target: T3, human leukocyte elastase; experiment: as above; remark: listed apart in the source
Protocol: as §4, §3

[5] = target: T4, human leukocyte cathepsin G (human, UniProt P08311 21-244); experiment: hCG enzyme inhibition kinetics, cleavage of Suc-AAPF-NA
T4 construct: mature; Active enzyme purified from human neutrophils; also called hCG; human Cathepsin G
T4 sequence (looked up): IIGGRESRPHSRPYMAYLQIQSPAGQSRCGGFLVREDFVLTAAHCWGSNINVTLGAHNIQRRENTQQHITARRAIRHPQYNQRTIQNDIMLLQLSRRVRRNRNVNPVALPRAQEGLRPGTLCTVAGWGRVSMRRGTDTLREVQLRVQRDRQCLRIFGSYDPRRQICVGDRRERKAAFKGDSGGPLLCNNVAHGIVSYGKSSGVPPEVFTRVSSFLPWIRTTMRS
Protocol: as §4
as §2, with “µL” for “μL”, “1–100 µM” for “1-100 μM”, “µM” for “μM”, “µg” for “μg”

## CC[C@H](C)[C@H](NC(=O)[C@H](CC(=O)O)NC(=O)[C@H](CCCN)NC(=O)[C@H](CO)NC(=O)[C@H](Cc1c[nH]c2ccccc12)NC(=O)[C@H](Cc1ccccc1)NC(=O)[C@@H](NC(=O)[C@H](CC(C)C)NC(=O)[C@@H](NC(=O)[C@@H](N)CCC(=O)O)[C@@H](C)CC)[C@@H](C)CC)C(=O)NCC(=O)N[C@@H](Cc1ccc(O)cc1)C(=O)N[C@@H](CO)C(=O)N[C@@H](Cc1ccccc1)C(=O)N[C@H](C(=O)O)[C@@H](C)O [Peptide 20, Glu-Ile-Leu-Ile-Phe-Trp-Ser-Orn-Asp-Ile-Gly-Tyr-Ser-Phe-Thr] (HELM PEPTIDE1{E.I.L.I.F.W.S.[Orn].D.I.G.Y.S.F.T}$$$$V2.0; N-terminus and C-terminus assumed)
[1]; Table 2
  Ki: 0.25 ± 0.05 µM
[2]
  hLE inhibitory activity (in words): retained the same level of inhibitory activity as peptide 6
[2]; Table 2
  Ki: 0.25 ± 0.1 µM

## CC[C@H](C)[C@H](NC(=O)[C@H](CC(=O)O)NC(=O)[C@H](CCN)NC(=O)[C@H](CO)NC(=O)[C@H](Cc1c[nH]c2ccccc12)NC(=O)[C@H](Cc1ccccc1)NC(=O)[C@@H](NC(=O)[C@H](CC(C)C)NC(=O)[C@@H](NC(=O)[C@@H](N)CCC(=O)O)[C@@H](C)CC)[C@@H](C)CC)C(=O)NCC(=O)N[C@@H](Cc1ccc(O)cc1)C(=O)N[C@@H](CO)C(=O)N[C@@H](Cc1ccccc1)C(=O)N[C@H](C(=O)O)[C@@H](C)O [Peptide 21, Glu-Ile-Leu-Ile-Phe-Trp-Ser-DAB-Asp-Ile-Gly-Tyr-Ser-Phe-Thr] (HELM PEPTIDE1{E.I.L.I.F.W.S.[Dab].D.I.G.Y.S.F.T}$$$$V2.0; N-terminus and C-terminus assumed)
[1]; Table 2
  Ki: 0.85 ± 0.35 µM
[2]
  hLE inhibitory activity (in words): retained the same level of inhibitory activity as peptide 6
[2]; Table 2
  Ki: 0.2 ± 0.05 µM

## CC[C@H](C)[C@H](NC(=O)[C@H](CC(C)C)NC(=O)[C@@H](NC(=O)[C@H](CCC(=O)O)NC(=O)[C@H](CC(N)=O)NC(=O)[C@H](CC(=O)O)NC(=O)[C@H](CCC(N)=O)NC(=O)[C@H](CCCNC(=N)N)NC(=O)[C@H](CCCCN)NC(=O)[C@@H](NC(=O)[C@H](C)NC(=O)[C@H](Cc1ccc(O)cc1)NC(=O)[C@H](CO)NC(=O)[C@@H](N)Cc1ccccc1)[C@@H](C)O)[C@@H](C)CC)C(=O)N[C@@H](Cc1ccccc1)C(=O)O [Peptide 4, Phe-Ser-Tyr-Ala-Thr-Lys-Arg-Gln-Asp-Asn-Glu-Ile-Leu-Ile-Phe] (H-FSYATKRQDNEILIF-OH)
[1]; Table 1
  Ki: > 200 µM
[2]; Table 1
  Ki: > 200 µM

## CC[C@H](C)[C@H](NC(=O)[C@H](CC(=O)O)NC(=O)[C@H](CCCCN)NC(=O)[C@H](CO)NC(=O)[C@H](Cc1c[nH]c2ccccc12)NC(=O)[C@H](Cc1ccccc1)NC(=O)[C@@H](NC(=O)[C@H](CC(C)C)NC(=O)[C@@H](NC(=O)[C@@H](N)CCC(=O)O)[C@@H](C)CC)[C@@H](C)CC)C(=O)NCC(=O)N[C@@H](Cc1ccc(O)cc1)C(=O)O [Peptide 13, Glu-Ile-Leu-Ile-Phe-Trp-Ser-Lys-Asp-Ile-Gly-Tyr] (H-EILIFWSKDIGY-OH; N-terminus and C-terminus assumed)
[1]
  hCG inhibitory activity (in words): diminished inhibitory activity
[2]
  hLE inhibitory activity (in words): diminished hLE inhibitory activity

## CC[C@H](C)[C@H](NC(=O)[C@H](CO)NC(=O)[C@H](Cc1ccc(O)cc1)NC(=O)CNC(=O)[C@H](CCCNC(=N)N)NC(=O)[C@@H](NC(=O)[C@H](CO)NC(=O)[C@H](CO)NC(=O)[C@H](CC(C)C)NC(=O)[C@H](CCC(=O)O)NC(=O)[C@@H](NC(=O)[C@H](Cc1ccc(O)cc1)NC(=O)[C@H](Cc1ccccc1)NC(=O)[C@H](Cc1c[nH]cn1)NC(=O)[C@@H](N)CC(C)C)[C@@H](C)O)[C@@H](C)O)C(=O)O [Peptide 1, Leu-His-Phe-Tyr-Thr-Glu-Leu-Ser-Ser-Thr-Arg-Gly-Tyr-Ser-Ile] (H-LHFYTELSSTRGYSI-OH)
[1]; Table 1
  Ki: > 200 µM
[2]; Table 1
  Ki: > 200 µM

## CC[C@H](C)[C@H](NC(=O)[C@H](CCC(=O)O)NC(=O)[C@H](CO)NC(=O)CNC(=O)CNC(=O)[C@@H](NC(=O)[C@@H](NC(=O)[C@H](Cc1ccccc1)NC(=O)[C@H](CO)NC(=O)[C@H](Cc1ccc(O)cc1)NC(=O)CN)[C@@H](C)O)C(C)C)C(=O)N[C@@H](CC(C)C)C(=O)N[C@@H](Cc1ccccc1)C(=O)N[C@@H](CCC(=O)O)C(=O)N[C@H](C(=O)O)C(C)C [Peptide 8, Gly-Tyr-Ser-Phe-Thr-Val-Gly-Gly-Ser-Glu-Ile-Leu-Phe-Glu-Val] (H-GYSFTVGGSEILFEV-OH)
[1]; Table 1
  Ki: > 200 µM
[2]; Table 1
  Ki: > 200 µM

B1: peptide 26 (peptide)
peptide: EILIFWSVDI
notes: 10-mer analog of peptide 14 (CRP62-71) with Lys69 replaced by Val; also called pep26
Human leukocyte elastase [3]
  Ki: 2 µM

## TFSYGIDKSWFILIE [peptide 24 (reverse sequence of peptide 6)]
Human leukocyte elastase [4]
  fold less active against peptide 6: 30 fold
Human leukocyte elastase [3]
  Ki: 10 µM

## ATKRQDNEILIFWSKDIGYSFTVGGSEIL (Synthetic 29-mer) [peptide 17 (CRP55-83)]
Human leukocyte elastase [3]
  Ki: 7.3 µM

B2: peptide 19 (peptide)
peptide: EILIFWPKDIGYSFT
notes: Analog of peptide 6 (CRP62-76) with Ser68 replaced by Pro
[5]
  Ki: 30 µM

B3: peptide 23 (peptide)
peptide: EILIFWSKEIGYSFT
notes: Analog of peptide 6 (CRP62-76) with Asp70 replaced by Glu; also called pep23
Human leukocyte elastase [3]
  Ki: 0.55 µM
